Like-named read-outs stand apart in the source and are kept apart here.
Columns and labels:
Drosophila OR13a = biological target: T1, Drosophila OR13a (Drosophila melanogaster, UniProt Q9VXL0); experiment: Calcium ion fluorescence (GCaMP6) assay, OR13a stable HEK293 cell line; format: cell-based
T1 construct: expressed in transfected cells
T1 sequence (Q9VXL0 1-418): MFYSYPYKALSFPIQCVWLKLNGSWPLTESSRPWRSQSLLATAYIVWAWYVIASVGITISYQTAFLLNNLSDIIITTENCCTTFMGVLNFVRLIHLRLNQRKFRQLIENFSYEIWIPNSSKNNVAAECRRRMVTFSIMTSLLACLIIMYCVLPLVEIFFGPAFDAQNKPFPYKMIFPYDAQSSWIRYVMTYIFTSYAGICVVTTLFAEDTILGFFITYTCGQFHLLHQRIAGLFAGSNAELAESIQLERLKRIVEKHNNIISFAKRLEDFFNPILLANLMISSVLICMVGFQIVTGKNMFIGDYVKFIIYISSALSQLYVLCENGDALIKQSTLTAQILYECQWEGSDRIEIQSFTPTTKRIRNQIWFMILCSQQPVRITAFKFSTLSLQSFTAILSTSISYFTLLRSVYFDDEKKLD
T1 sequence (Q9VNB5 1-486 partner): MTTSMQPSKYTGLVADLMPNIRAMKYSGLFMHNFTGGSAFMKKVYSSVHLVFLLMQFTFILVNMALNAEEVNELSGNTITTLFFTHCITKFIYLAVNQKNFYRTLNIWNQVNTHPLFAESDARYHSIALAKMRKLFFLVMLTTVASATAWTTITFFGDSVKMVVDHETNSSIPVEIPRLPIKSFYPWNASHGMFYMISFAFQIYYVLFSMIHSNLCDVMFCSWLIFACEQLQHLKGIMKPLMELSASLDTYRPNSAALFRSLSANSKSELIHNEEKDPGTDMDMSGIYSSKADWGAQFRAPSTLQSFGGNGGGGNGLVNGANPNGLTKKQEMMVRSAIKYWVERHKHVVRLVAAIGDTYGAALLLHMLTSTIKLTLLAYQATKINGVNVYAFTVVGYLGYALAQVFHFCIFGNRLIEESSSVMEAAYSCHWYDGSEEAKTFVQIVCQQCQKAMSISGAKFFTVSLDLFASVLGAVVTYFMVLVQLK
Procedure, shortened: (§1)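 HEK293 lines stably expressing each Drosophila OR with GCaMP6, doxycycline-induced (1 μg/mL) 48 or 72 h. Fluorescence recorded 5 s baseline then 30 s after VOC injection at pH 7.3; ΔF=(FMAX−F0)/F0, normalized to 50 µM VUAA1 response per line, triplicate wells averaged; concentration series 0.01–100 μM.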

Drosophila OR49b = biological target: T2, Drosophila OR49b (Drosophila melanogaster, UniProt Q9V6H2); experiment: cell-based; details: for activation at 1 µM / activation at 10 µM / activation at 100 µM: HEK293; for Average response: mean of biological replicates; for DF norm AVERAGE OR49b: threshold 0.05, below shown as 0
T2 construct: expressed in transfected cells
T2 sequence (Q9V6H2 1-375): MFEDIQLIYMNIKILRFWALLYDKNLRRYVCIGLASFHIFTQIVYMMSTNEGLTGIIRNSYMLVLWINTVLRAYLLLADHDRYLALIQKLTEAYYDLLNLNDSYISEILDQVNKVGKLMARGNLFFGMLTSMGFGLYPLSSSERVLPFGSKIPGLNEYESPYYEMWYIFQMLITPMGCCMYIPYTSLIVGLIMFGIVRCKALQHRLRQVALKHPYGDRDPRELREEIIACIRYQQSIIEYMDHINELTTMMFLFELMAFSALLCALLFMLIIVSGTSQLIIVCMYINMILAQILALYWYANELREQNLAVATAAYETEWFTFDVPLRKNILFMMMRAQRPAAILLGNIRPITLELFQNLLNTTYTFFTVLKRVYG
T2 sequence (Q9VNB5 1-486 partner): T1 sequence (Q9VNB5 1-486 partner)
Procedure, shortened: as §1

[1] = HEK293, read-out: OR13a Average response (VUAA1-normalized), 1 μM VOC, 50 μM VUAA1 = 1, responses not exceeding 0.05 considered 0
[2] = HEK293, read-out: OR13a Average response (VUAA1-normalized), 10 μM VOC, 50 μM VUAA1 = 1, responses not exceeding 0.05 considered 0
[3] = HEK293, read-out: OR13a Average response (VUAA1-normalized), 100 μM VOC, 50 μM VUAA1 = 1, responses not exceeding 0.05 considered 0
[4] = HEK293, read-out: OR13a response (VUAA1-normalized response), VOC concentration 1 μM
[5] = HEK293, read-out: OR13a response (VUAA1-normalized response), VOC concentration 10 μM
[6] = HEK293, read-out: OR13a response (VUAA1-normalized response), VOC concentration 100 μM
[7] = concentration 1, normalized fluorescence change, values below 0.05 threshold given as 0
[8] = concentration 10, normalized fluorescence change, values below 0.05 threshold given as 0
[9] = concentration 100, normalized fluorescence change, values below 0.05 threshold given as 0
[10] = 1 μM VOC, 50 μM VUAA1 = 1, read-out: OR49b Average response (VUAA1-normalized)
[11] = 10 μM VOC, 50 μM VUAA1 = 1, read-out: OR49b Average response (VUAA1-normalized)
[12] = 100 μM VOC, 50 μM VUAA1 = 1, read-out: OR49b Average response (VUAA1-normalized)
[13] = VOC concentration 1 μM, read-out: OR49b response (VUAA1-normalized response)
[14] = VOC concentration 10 μM, read-out: OR49b response (VUAA1-normalized response)
[15] = VOC concentration 100 μM, read-out: OR49b response (VUAA1-normalized response)
[16] = OR49b cell line, odorant cc. 1 µM
[17] = OR49b cell line, odorant cc. 10 µM
[18] = OR49b cell line, odorant cc. 100 µM
[19] = ligand concentration 1 (unit not given), threshold 0.05, below shown as 0
[20] = ligand concentration 10 (unit not given), threshold 0.05, below shown as 0
[21] = ligand concentration 100 (unit not given), threshold 0.05, below shown as 0
[22] = ligand concentration 1 (unit not given)
[23] = ligand concentration 10 (unit not given)
[24] = ligand concentration 100 (unit not given)

| Structure (SMILES) | activation at 1 µM (Drosophila OR13a; [1]) | activation at 10 µM (Drosophila OR13a; [2]) | activation at 100 µM (Drosophila OR13a; [3]) | activation at 1 µM (Drosophila OR13a; [4]) | activation at 10 µM (Drosophila OR13a; [5]) | activation at 100 µM (Drosophila OR13a; [6]) | DF norm AVERAGE OR13a (Drosophila OR13a; [7]) | DF norm AVERAGE OR13a (Drosophila OR13a; [8]) | DF norm AVERAGE OR13a (Drosophila OR13a; [9]) | activation at 1 µM (Drosophila OR49b; [10]) | activation at 10 µM (Drosophila OR49b; [11]) | activation at 100 µM (Drosophila OR49b; [12]) | activation at 1 µM (Drosophila OR49b; [13]) | activation at 10 µM (Drosophila OR49b; [14]) | activation at 100 µM (Drosophila OR49b; [15]) | Average response (Drosophila OR49b; [16]) | Average response (Drosophila OR49b; [17]) | Average response (Drosophila OR49b; [18]) | other results |
| --- | --- | --- | --- | --- | --- | --- | --- | --- | --- | --- | --- | --- | --- | --- | --- | --- | --- | --- | --- |
| Cc1ccc(C)c(C)c1 [1,2,4-trimethylbenzene] | 0% | 0% | 0% | 0% | 0% | 0% | 0 | 0 | 0 | 0% | 0% | 20% | 0% | 0% | 20% | 0.00 | 0.00 | 0.20 | – |
| CCCCCCCCC(CO)CCCCCC (stereo not drawn) [2-hexyl-1-decanol] | 7% | 0% | 0% | 7% | 0% | 0% | 0.07079 | 0 | 0 | – | – | – | 0% | 0% | 8.56% | 0.00 | 0.00 | 0.0856 | – |
| C=C1[C@H]2CC[C@@H]3[C@H]2C(C)(C)CCC[C@]13C [(+)-longifolene] | – | – | – | – | – | – | 0 | 0 | 0 | – | – | – | – | – | – | 0.08 | 0.00 | 0.00 | OR13a Average response (VUAA1-normalized) (Drosophila OR13a; 1 μM VOC, 50 μM VUAA1 = 1, responses not exceeding 0.05 considered 0): 0.00; OR13a Average response (VUAA1-normalized) (Drosophila OR13a; 10 μM VOC, 50 μM VUAA1 = 1, responses not exceeding 0.05 considered 0): 0.037; OR13a Average response (VUAA1-normalized) (Drosophila OR13a; 100 μM VOC, 50 μM VUAA1 = 1, responses not exceeding 0.05 considered 0): 0.00; OR13a response (VUAA1-normalized response) (Drosophila OR13a; VOC concentration 1 μM): 0.00; OR13a response (VUAA1-normalized response) (Drosophila OR13a; VOC concentration 10 μM): 0.00; OR13a response (VUAA1-normalized response) (Drosophila OR13a; VOC concentration 100 μM): 0.00; OR49b response (VUAA1-normalized response) (Drosophila OR49b; VOC concentration 1 μM): 0.08; OR49b response (VUAA1-normalized response) (Drosophila OR49b; VOC concentration 10 μM): 0.00; OR49b response (VUAA1-normalized response) (Drosophila OR49b; VOC concentration 100 μM): 0.00 |
| CCCCCCCO [1-heptanol] | 2% | 15% | 22% | 0% | 15% | 22% | 0 | 0.145 | 0.219 | – | – | – | 0% | 0% | 6% | 0.00 | 0.00 | 0.06 | – |
| CCCCCC(=O)CC [3-octanone] | 0% | 0% | 2.55% | 0% | 0% | 0% | 0 | 0 | 0 | – | – | – | 0% | 17% | 0% | 0.0421 | 0.17 | 0.0439 | – |
| O=Cc1ccccc1 [benzaldehyde] | 0% | 8% | 5% | 0% | 8% | 0% | – | – | – | 0% | 3% | 23% | 0% | 0% | 23% | 0.00 | 0.0283 | 0.23 | DF norm AVERAGE OR13a (Drosophila OR13a; [19]): 0; DF norm AVERAGE OR13a (Drosophila OR13a; [20]): 0.07623; DF norm AVERAGE OR13a (Drosophila OR13a; [21]): 0; DF norm AVERAGE OR49b (Drosophila OR49b; [22]): 0; DF norm AVERAGE OR49b (Drosophila OR49b; [23]): 0; DF norm AVERAGE OR49b (Drosophila OR49b; [24]): 0.2265 |
| Cc1ccccc1C [o-xylene] | 0% | 0% | 1.83% | – | – | – | – | – | – | 0% | 9% | 64% | – | – | – | 0.00 | 0.09 | 0.64 | OR13a response (VUAA1-normalized) at 1 μM (Drosophila OR13a; OR13a cell line, VOC concentration 1 μM): 0.00; OR13a response (VUAA1-normalized) at 10 μM (Drosophila OR13a; OR13a cell line, VOC concentration 10 μM): 0.00; OR13a response (VUAA1-normalized) at 100 μM (Drosophila OR13a; OR13a cell line, VOC concentration 100 μM): 0.00; DF norm AVERAGE OR13a (Drosophila OR13a; [19]): 0; DF norm AVERAGE OR13a (Drosophila OR13a; [20]): 0; DF norm AVERAGE OR13a (Drosophila OR13a; [21]): 0; OR49b response (VUAA1-normalized) at 1 μM (Drosophila OR49b; OR49b cell line, VOC concentration 1 μM): 0.00; OR49b response (VUAA1-normalized) at 10 μM (Drosophila OR49b; OR49b cell line, VOC concentration 10 μM): 0.09; OR49b response (VUAA1-normalized) at 100 μM (Drosophila OR49b; OR49b cell line, VOC concentration 100 μM): 0.64; DF norm AVERAGE OR49b (Drosophila OR49b; [22]): 0; DF norm AVERAGE OR49b (Drosophila OR49b; [23]): 0.08728; DF norm AVERAGE OR49b (Drosophila OR49b; [24]): 0.6438 |

Source: PMC10709440, “High-throughput ligand profile characterization in novel cell lines expressing seven heterologous insect olfactory receptors for the detection of volatile plant biomarkers” (Scientific Reports, 2023)
